Data from patent publication US20120095211A1, “SUBSTITUTED PROLINE INHIBITORS OF HEPATITIS C VIRUS REPLICATION” (InterMune, Inc., priority 2010, published 2012).
Read-outs that look alike come from different tables or passages of the source.

Assays:
[1] = rcm bond
[2] = target: NS3/NS4 complexes (Hepatitis C virus genotype 1a, UniProt P27958); assay: NS3/NS4 inhibition assay (inhibitory concentrations of test compounds); type: biochemical; conditions: NS3-NS4 activity; 23° C., pH 7.5, 25 μM NS4A peptide
NS3/NS4 complexes, sequence (P27958 1658-1711): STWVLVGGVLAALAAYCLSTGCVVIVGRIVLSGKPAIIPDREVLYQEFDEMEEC
NS3/NS4 complexes, sequence (P27958 1027-1657): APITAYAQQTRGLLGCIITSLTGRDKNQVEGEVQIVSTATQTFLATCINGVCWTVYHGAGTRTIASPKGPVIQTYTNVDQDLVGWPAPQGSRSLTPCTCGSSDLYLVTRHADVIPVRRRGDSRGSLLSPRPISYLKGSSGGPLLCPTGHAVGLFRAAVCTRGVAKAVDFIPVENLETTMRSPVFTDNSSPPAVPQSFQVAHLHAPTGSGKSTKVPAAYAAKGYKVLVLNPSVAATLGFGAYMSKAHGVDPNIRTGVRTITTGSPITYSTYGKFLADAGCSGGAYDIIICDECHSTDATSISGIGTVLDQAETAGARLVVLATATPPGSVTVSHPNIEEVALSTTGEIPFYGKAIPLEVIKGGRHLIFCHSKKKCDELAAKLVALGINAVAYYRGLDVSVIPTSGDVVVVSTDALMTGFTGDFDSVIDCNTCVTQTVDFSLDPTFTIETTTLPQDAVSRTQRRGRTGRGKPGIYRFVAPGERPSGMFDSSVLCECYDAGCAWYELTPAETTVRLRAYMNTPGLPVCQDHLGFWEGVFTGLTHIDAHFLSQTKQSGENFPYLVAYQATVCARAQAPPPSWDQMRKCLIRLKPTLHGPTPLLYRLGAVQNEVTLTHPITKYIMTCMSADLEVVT
Description: (§1) NS3-NS4 inhibition activity can be determined using known assay methods. For example, NS3/NS4 complexes may be formed and inhibitory concentrations of test compounds determined as described in U.S. Patent Application Publication Number 2007/0054842 paragraph numbers 1497-1509, which is incorporated herein by reference in its entirety. Similarly, hepatitis C replicon EC50 may be determined using known assay methods such as described in U.S. Patent Application Publication Number 2007/0054842 paragraph numbers 1510-1515, which is incorporated herein by reference in its entirety. Assays may be conducted at ambient temperature (23° C.) in assay buffer containing 50 mM Tris-HCl, pH 7.5, 15% glycerol, 0.6 mM Lauryldimethylamine Oxide (LDAO), 25 μM NS4A peptide, and 10 mM Dithiothreitol (DTT).

[3] = test system: hepatitis C replicon; assay: hepatitis C replicon EC50 assay; type: cell-based, hepatitis C virus (HCV); conditions: Hepatitis C virus
Description: as §1

[4] = hepatitis C replicon, read-out: EC50

CC(C)n1c(O[C@H]2CN3C(=O)[C@@H](NC(=O)OC(C)(C)C)CCCCCC=C[C@@H]4C[C@@]4(C(=O)NS(=O)(=O)C4(C)CC4)NC(=O)[C@@H]3[C@@H]2C)nc2c(-c3nc(C4CCCCC4)cs3)cccc21
ring closure, yield of all isomers ([1]; from C=CCCCCC[C@H](NC(=O)OC(C)(C)C)C(=O)N1C[C@H](Oc2nc3c(-c4nc(C5CCCCC5)cs4)cccc3n2C(C)C)[C@@H](C)[C@H]1C(=O)N[C@]1(C(=O)NS(=O)(=O)C2(C)CC2)C[C@H]1C=C, Zhan catalyst, toluene, 5.16 mM, 65.0 °C, 1.0 h): 53.9%

CCOC(=O)[C@@]12C[C@H]1C=CCCCCC[C@H](NC(=O)OC(C)(C)C)C(=O)N1C[C@H](Oc3cc(-c4nc(C(C)C)cs4)nc4c(C)c(OC)ccc34)[C@@H](C)[C@H]1C(=O)N2
ring closure, yield of all isomers ([1]; from C=CCCCCC[C@H](NC(=O)OC(C)(C)C)C(=O)N1C[C@H](Oc2cc(-c3nc(C(C)C)cs3)nc3c(C)c(OC)ccc23)[C@@H](C)[C@H]1C(=O)N[C@]1(C(=O)OCC)C[C@H]1C=C, Zhan catalyst, toluene, 11.67 mM, 70.0 °C, 2.0 h): 75%

CCOC(=O)[C@@]12C[C@H]1C=CCCCCC[C@H](NC(=O)OC(C)(C)C)C(=O)N1C[C@H](Oc3nc4c(-c5nc(C6CCCCC6)cs5)cccc4n3C(C)C)[C@@H](C)[C@H]1C(=O)N2
ring closure, yield of all isomers ([1]; from C=CCCCCC[C@H](NC(=O)OC(C)(C)C)C(=O)N1C[C@H](Oc2nc3c(-c4nc(C5CCCCC5)cs4)cccc3n2C(C)C)[C@@H](C)[C@H]1C(=O)N[C@]1(C(=O)OCC)C[C@H]1C=C, Hoveyda-Grubbs catalyst, 1,2-dichloroethane, 0.96 mM): 83%

CCOC(=O)[C@@]12C[C@H]1C=CCCCCC[C@H](NC(=O)OC(C)(C)C)C(=O)N1C[C@H](Oc3ncc(OC)c4ccc(Cl)cc34)[C@@H](C)[C@H]1C(=O)N2
ring closure, yield of all isomers ([1]; from C=CCCCCC[C@H](NC(=O)OC(C)(C)C)C(=O)N1C[C@H](Oc2ncc(OC)c3ccc(Cl)cc23)[C@@H](C)[C@H]1C(=O)N[C@]1(C(=O)OCC)C[C@H]1C=C, Hoveyda-Grubbs catalyst, 1,2-dichloroethane, 0.8 mM, 12.0 h): 92%

COc1ccc2c(O[C@H]3CN4C(=O)[C@@H](NC(=O)OC(C)(C)C)CCCCCC=C[C@@H]5C[C@@]5(C(=O)NS(=O)(=O)C5(C)CC5)NC(=O)[C@@H]4C3(C)C)cc(-c3nc(C(C)C)cs3)nc2c1C
ring closure, yield of all isomers ([1]; from C=CCCCCC[C@H](NC(=O)OC(C)(C)C)C(=O)N1C[C@H](Oc2cc(-c3nc(C(C)C)cs3)nc3c(C)c(OC)ccc23)C(C)(C)[C@H]1C(=O)N[C@]1(C(=O)NS(=O)(=O)C2(C)CC2)C[C@H]1C=C, Zhan catalyst, toluene, 5.9 mM, 65.0 °C, 1.33 h): 56%

COc1ccc2c(O[C@H]3CN4C(=O)[C@@H](NC(=O)OC(C)(C)C)CCCCCC=C[C@@H]5C[C@@]5(C(=O)NS(=O)(=O)C5(C)CC5)NC(=O)[C@@H]4[C@@H]3C)cc(-c3nc(C(C)C)cs3)nc2c1C
ring closure, yield of all isomers ([1]; from C=CCCCCC[C@H](NC(=O)OC(C)(C)C)C(=O)N1C[C@H](Oc2cc(-c3nc(C(C)C)cs3)nc3c(C)c(OC)ccc23)[C@@H](C)[C@H]1C(=O)N[C@]1(C(=O)NS(=O)(=O)C2(C)CC2)C[C@H]1C=C, Zhan catalyst, toluene, 5.9 mM, 65.0 °C, 0.5 h): 68%

COc1ccc2c(O[C@H]3CN4C(=O)[C@@H](NC(=O)OC(C)(C)C)CCCCCC=C[C@@H]5C[C@@]5(C(=O)NS(=O)(=O)C5(C)CC5)NC(=O)[C@@H]4[C@H]3C)cc(-c3nc(C(C)C)cs3)nc2c1C
ring closure, yield of all isomers ([1]; from C=CCCCCC[C@H](NC(=O)OC(C)(C)C)C(=O)N1C[C@H](Oc2cc(-c3nc(C(C)C)cs3)nc3c(C)c(OC)ccc23)[C@H](C)[C@H]1C(=O)N[C@]1(C(=O)NS(=O)(=O)C2(C)CC2)C[C@H]1C=C, Zhan catalyst, 70.0 °C, 0.5 h): 59%

COc1ccc2c(O[C@H]3CN4C(=O)[C@@H](NC(=O)OC(C)(C)C)CCCCC/C=C\[C@@H]5C[C@@]5(C(=O)NS(=O)(=O)C5(C)CC5)NC(=O)[C@@H]4C3(C)C)cc(-c3nc(C(C)C)cs3)nc2c1C [Compound 101]
IC50 [2]: 10 to 100 nM | EC50 [3, 4]: > 100 nM

COc1ccc2c(O[C@H]3CN4C(=O)[C@@H](NC(=O)OC(C)(C)C)CCCCC/C=C\[C@@H]5C[C@@]5(C(=O)NS(=O)(=O)C5(C)CC5)NC(=O)[C@@H]4[C@@H]3C)cc(-c3nc(C(C)C)cs3)nc2c1C [Compound 102]
IC50 [2]: < 10 nM | EC50 [3, 4]: < 10 nM

COc1ccc2c(O[C@H]3CN4C(=O)[C@@H](NC(=O)OC(C)(C)C)CCCCC/C=C\[C@@H]5C[C@@]5(C(=O)NS(=O)(=O)C5CC5)NC(=O)[C@@H]4[C@@H]3C)cc(-c3nc(C(C)C)cs3)nc2c1C [Compound 103]
IC50 [2]: < 10 nM | EC50 [3, 4]: < 10 nM

COc1ccc2c(O[C@H]3CN4C(=O)[C@@H](N)CCCCC/C=C\[C@@H]5C[C@@]5(C(=O)NS(=O)(=O)C5(C)CC5)NC(=O)[C@@H]4[C@@H]3C)cc(-c3nc(C(C)C)cs3)nc2c1C [Compound 104]
IC50 [2]: < 10 nM | EC50 [3, 4]: 10 to 100 nM

COc1ccc2c(O[C@H]3CN4C(=O)[C@@H](NC(=O)OC(C)(C)C)CCCCC/C=C\[C@@H]5C[C@@]5(C(=O)NS(=O)(=O)C5(C)CC5)NC(=O)[C@@H]4[C@H]3C)cc(-c3nc(C(C)C)cs3)nc2c1C [Compound 106]
IC50 [2]: 10 to 100 nM | EC50 [3, 4]: > 100 nM

CC(C)n1c(O[C@H]2CN3C(=O)[C@@H](NC(=O)OC(C)(C)C)CCCCC/C=C\[C@@H]4C[C@@]4(C(=O)NS(=O)(=O)C4(C)CC4)NC(=O)[C@@H]3[C@@H]2C)nc2c(-c3nc(C4CCCCC4)cs3)cccc21 [Compound 107]
IC50 [2]: < 10 nM | EC50 [3, 4]: 10 to 100 nM

CC(C)n1c(O[C@H]2CN3C(=O)[C@@H](NC(=O)OC(C)(C)C)CCCCC/C=C\[C@@H]4C[C@@]4(C(=O)NS(=O)(=O)C4CC4)NC(=O)[C@@H]3[C@@H]2C)nc2c(-c3nc(C4CCCCC4)cs3)cccc21 [Compound 109]
IC50 [2]: < 10 nM | EC50 [3, 4]: 10 to 100 nM

COc1cnc(O[C@H]2CN3C(=O)[C@@H](NC(=O)OC(C)(C)C)CCCCC/C=C\[C@@H]4C[C@@]4(C(=O)O)NC(=O)[C@@H]3[C@@H]2C)c2cc(Cl)ccc12 [Compound 110]
IC50 [2]: < 10 nM | EC50 [3, 4]: > 100 nM

COc1cnc(O[C@H]2CN3C(=O)[C@@H](NC(=O)OC(C)(C)C)CCCCC/C=C\[C@@H]4C[C@@]4(C(=O)NS(=O)(=O)C4(C)CC4)NC(=O)[C@@H]3[C@@H]2C)c2cc(Cl)ccc12 [Compound 111]
IC50 [2]: < 10 nM | EC50 [3, 4]: < 10 nM

C=C[C@@H]1C[C@]1(NC(=O)[C@H]1N(C(=O)C(NC(=O)OC(C)(C)C)C(C)(C)C)C[C@H](Oc2cc(-c3nc(C(C)C)cs3)nc3c(C)c(OC)ccc23)C1(C)C)C(=O)NS(=O)(=O)C1(C)CC1 (some centres unmarked) [Compound 202]
IC50 [2]: > 100 nM | EC50 [3, 4]: > 100 nM

C=C[C@@H]1C[C@]1(NC(=O)[C@@H]1[C@H](C)[C@@H](Oc2cc(-c3nc(C(C)C)cs3)nc3c(C)c(OC)ccc23)CN1C(=O)C(N)C(C)(C)C)C(=O)NS(=O)(=O)C1(C)CC1 (some centres unmarked) [Compound 203]
IC50 [2]: < 10 nM | EC50 [3, 4]: 10 to 100 nM

C=C[C@@H]1C[C@]1(NC(=O)[C@@H]1[C@H](C)[C@@H](Oc2cc(-c3nc(C(C)C)cs3)nc3c(C)c(OC)ccc23)CN1C(=O)[C@@H](NC(=O)OC(C)(C)C)C(C)(C)C)C(=O)NS(=O)(=O)C1(C)CC1 [Compound 204]
IC50 [2]: < 10 nM | EC50 [3, 4]: < 10 nM

C=C[C@@H]1C[C@]1(NC(=O)[C@@H]1[C@H](C)[C@@H](Oc2cc(-c3nc(C(C)C)cs3)nc3c(C)c(OC)ccc23)CN1C(=O)[C@@H](NC(=O)OC(C)(C)C)C(C)(C)C)C(=O)NS(=O)(=O)C1CC1 [Compound 205]
IC50 [2]: < 10 nM | EC50 [3, 4]: < 10 nM

C=C[C@@H]1C[C@]1(NC(=O)[C@@H]1[C@H](C)[C@@H](Oc2cc(-c3nc(C(C)C)cs3)nc3c(C)c(OC)ccc23)CN1C(=O)[C@@H](N)C(C)(C)C)C(=O)NS(=O)(=O)C1CC1 [Compound 207]
IC50 [2]: < 10 nM | EC50 [3, 4]: > 100 nM

C=C[C@@H]1C[C@]1(NC(=O)[C@@H]1[C@@H](C)[C@@H](Oc2cc(-c3nc(C(C)C)cs3)nc3c(C)c(OC)ccc23)CN1C(=O)[C@@H](NC(=O)OC(C)(C)C)C(C)(C)C)C(=O)NS(=O)(=O)C1(C)CC1 [Compound 208]
IC50 [2]: 10 to 100 nM | EC50 [3]: > 100 nM

C=C[C@@H]1C[C@]1(NC(=O)[C@@H]1[C@H](C)[C@@H](Oc2cc(-c3nc(C(C)C)cs3)nc3c(C)c(OC)ccc23)CN1C(=O)[C@@H](Nc1cccc(C(F)(F)F)c1)C(C)(C)C)C(=O)NS(=O)(=O)C1(C)CC1 [Compound 209]
IC50 [2]: < 10 nM | EC50 [3, 4]: 10 to 100 nM

C=C[C@@H]1C[C@]1(NC(=O)[C@@H]1[C@H](C)[C@@H](Oc2ncc(OC)c3ccc(Cl)cc23)CN1C(=O)[C@@H](NC(=O)OC(C)(C)C)C(C)(C)C)C(=O)O [Compound 210]
IC50 [2]: 10 to 100 nM | EC50 [3, 4]: > 100 nM

C=C[C@@H]1C[C@]1(NC(=O)[C@@H]1[C@H](C)[C@@H](Oc2ncc(OC)c3ccc(Cl)cc23)CN1C(=O)[C@@H](NC(=O)OC(C)(C)C)C(C)(C)C)C(=O)NS(=O)(=O)C1(C)CC1 [Compound 211]
IC50 [2]: < 10 nM | EC50 [3, 4]: < 10 nM

C=C[C@@H]1C[C@]1(NC(=O)[C@@H]1[C@@H](C)[C@@H](Oc2cc(-c3nc(C(C)C)cs3)nc3c(C)c(OC)ccc23)CN1C(=O)[C@@H](N)C(C)(C)C)C(=O)NS(=O)(=O)C1(C)CC1 [Compound 212]
IC50 [2]: > 100 nM
